Test results: ChEMBL document CHEMBL1125524, “Adenosine A1 antagonists. 2. Structure-activity relationships on diuretic activities and protective effects against acute renal failure” (J Med Chem, 1992)

Tests used:
Rattus norvegicus [1] = experiment: Ratio of urinary excretion value (urinary volume) in treated rats to that in control rats, at a peroral dose of 6.25 mg/Kg; assay type: functional, Urine
Rattus norvegicus [2] = experiment: Oral diuretic activity was measured after oral administration of 25 mg/kg to rats(control volume is 1.00+/-0.13); assay type: functional, Urine
Rattus norvegicus [3] = experiment: Percent inhibition of serum creatinine by the compound given as ratio of Cr value in treated to vehicle treated ones after intraperitoneal administration of 1 mg/kg of compound to rats(vehicle 5.43+/-0.11); assay type: functional; conditions: ip
Rattus norvegicus [4] = experiment: Ratio of urinary excretion value (Na+ concentration) in treated rats to that in control rats, at a peroral dose of 6.25 mg/Kg; assay type: functional, Urine
Rattus norvegicus [5] = experiment: Ratio of urinary excretion value (Na+ concentration) in treated rats to that in control rats, at a peroral dose of 25 mg/Kg; assay type: functional, Urine
Rattus norvegicus [6] = experiment: Serum creatinine concentration measured after intraperitoneal administration of 1 mg/kg of compound to rats(vehicle 5.43+/-0.11); assay type: functional
Rattus norvegicus [7] = experiment: Percent inhibition of Urea nitrogen by the compound given as ratio of UN value in treated to vehicle treated ones after intraperitoneal administration of 1 mg/kg of compound to rats(vehicle 182.5+/-3.4); assay type: functional; conditions: ip
Rattus norvegicus [8] = experiment: Ratio of urinary excretion value (urinary volume) in treated rats to that in control rats, at a peroral dose of 0.1 mg/Kg; assay type: functional, Urine
Rattus norvegicus [9] = experiment: Oral diuretic activity was measured after oral administration of 0.1 mg/kg to rats(control volume is 1.10+/-0.09); assay type: functional, Urine
Rattus norvegicus [10] = experiment: Ratio of sodium ion/potassium ion concentration in treated rats to that in control rats, at a peroral dose of 0.4 mg/Kg; assay type: functional
Rattus norvegicus [11] = experiment: Effect on urinary excretion potassium and sodium after oral administration of 1.6 mg/kg to rats(potassium and sodium excretion in control rat is 0.193+/-0.016); assay type: functional, Urine
Rattus norvegicus [12] = experiment: Oral diuretic activity was measured after oral administration of 0.4 mg/kg to rats(control volume is 0.83+/-0.08); assay type: functional, Urine
Rattus norvegicus [13] = experiment: Ratio of urinary excretion value (Na+ concentration) in treated rats to that in control rats, at a peroral dose of 0.4 mg/Kg; assay type: functional, Urine
Rattus norvegicus [14] = experiment: Ratio of urinary excretion value (Na+ concentration) in treated rats to that in control rats, at a peroral dose of 1.6 mg/Kg; assay type: functional, Urine
Rattus norvegicus [15] = experiment: Effect on urinary excretion potassium and sodium after oral administration of 0.4 mg/kg to rats(potassium and sodium excretion in control rat is 0.132+/-0.010); assay type: functional, Urine
Rattus norvegicus [16] = experiment: Ratio of urinary excretion value (urinary volume) in treated rats to that in control rats, at a peroral dose of 1.6 mg/Kg; assay type: functional, Urine
Rattus norvegicus [17] = experiment: Ratio of urinary excretion value (Na+ concentration) in treated rats to that in control rats, at a peroral dose of 0.1 mg/Kg; assay type: functional, Urine
Rattus norvegicus [18] = experiment: Urea nitrogen concentration measured after intraperitoneal administration of 1 mg/kg of compound to rats(vehicle 182.5+/-3.4); assay type: functional
Rattus norvegicus [19] = experiment: Ratio of sodium ion/potassium ion concentration in treated rats to that in control rats, at a peroral dose of 1.6 mg/Kg; assay type: functional
Rattus norvegicus [20] = experiment: Ratio of sodium ion/potassium ion concentration in treated rats to that in control rats, at a peroral dose of 0.1 mg/Kg; assay type: functional
Rattus norvegicus [21] = experiment: Ratio of urinary excretion value (urinary volume) in treated rats to that in control rats, at a peroral dose of 25 mg/Kg; assay type: functional, Urine
Rattus norvegicus [22] = experiment: Effect on urinary excretion potassium and sodium after oral administration of 0.1 mg/kg to rats(potassium and sodium excretion in control rat is 0.169+/-0.018); assay type: functional, Urine
Rattus norvegicus [23] = experiment: Effect on urinary excretion potassium and sodium after oral administration of 25 mg/kg to rats(potassium and sodium excretion in control rat is 0.129+/-0.026); assay type: functional, Urine
Rattus norvegicus [24] = experiment: Ratio of sodium ion/potassium ion concentration in treated rats to that in control rats, at a peroral dose of 25 mg/Kg; assay type: functional
Rattus norvegicus [25] = experiment: Oral diuretic activity was measured after oral administration of 1.6 mg/kg to rats(control volume is 0.91+/-0.08); assay type: functional, Urine
Rattus norvegicus [26] = experiment: Ratio of urinary excretion value (urinary volume) in treated rats to that in control rats, at a peroral dose of 0.4 mg/Kg; assay type: functional, Urine
Rattus norvegicus [27] = experiment: Percent inhibition of Urea nitrogen by the compound given as ratio of UN value in treated to vehicle treated ones after intraperitoneal administration of 1 mg/kg of compound to rats(vehicle 138.8+/-7.8); assay type: functional; conditions: ip
Rattus norvegicus [28] = experiment: Urea nitrogen concentration measured after intraperitoneal administration of 0.1 mg/kg of compound to rats(vehicle 171.3+/-6.4); assay type: functional
Adenosine receptor A1 = target: T1, Adenosine receptor A1 (Cavia porcellus, UniProt P47745)
T1 sequence (P47745 whole entry): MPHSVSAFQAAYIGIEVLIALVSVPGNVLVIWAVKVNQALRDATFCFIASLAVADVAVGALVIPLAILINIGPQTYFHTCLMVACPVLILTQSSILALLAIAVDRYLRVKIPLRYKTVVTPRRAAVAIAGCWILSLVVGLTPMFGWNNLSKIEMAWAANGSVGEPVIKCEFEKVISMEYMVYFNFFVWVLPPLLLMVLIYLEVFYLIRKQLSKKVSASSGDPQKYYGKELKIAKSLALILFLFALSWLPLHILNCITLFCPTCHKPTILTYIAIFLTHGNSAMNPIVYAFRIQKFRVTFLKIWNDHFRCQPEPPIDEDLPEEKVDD
Description: Binding affinity against adenosine A1 receptor in guinea pig forebrain membranes using N6-[3H]cyclohexyladenosine as radioligand

Rattus norvegicus [29] = experiment: Percent inhibition of serum creatinine by the compound given as ratio of Cr value in treated to vehicle treated ones after intraperitoneal administration of 0.1 mg/kg of compound to rats(vehicle 6.90+/-0.2); assay type: functional; conditions: ip
Rattus norvegicus [30] = experiment: Oral diuretic activity was measured after oral administration of 1.6 mg/kg to rats(control volume is 0.86+/-0.09); assay type: functional, Urine
Rattus norvegicus [31] = experiment: Percent inhibition of Urea nitrogen by the compound given as ratio of UN value in treated to vehicle treated ones after intraperitoneal administration of 0.1 mg/kg of compound to rats(vehicle 171.3+/-6.4); assay type: functional; conditions: ip
Rattus norvegicus [32] = experiment: Percent inhibition of serum creatinine by the compound given as ratio of Cr value in treated to vehicle treated ones after intraperitoneal administration of 1 mg/kg of compound to rats(vehicle 4.74+/-0.31); assay type: functional; conditions: ip
Rattus norvegicus [33] = experiment: Urea nitrogen concentration measured after intraperitoneal administration of 1 mg/kg of compound to rats(vehicle 138.8+/-7.8); assay type: functional
Rattus norvegicus [34] = experiment: Serum creatinine concentration measured after intraperitoneal administration of 0.1 mg/kg of compound to rats(vehicle 6.90+/-0.2); assay type: functional
Rattus norvegicus [35] = experiment: Serum creatinine concentration measured after intraperitoneal administration of 1 mg/kg of compound to rats(vehicle 4.74+/-0.31); assay type: functional
Rattus norvegicus [36] = experiment: Effect on urinary excretion potassium and sodium after oral administration of 1.6 mg/kg to rats(potassium and sodium excretion in control rat is 0.174+/-0.013); assay type: functional, Urine

`CCCn1c(=O)c2[nH]c(C3CCCC3)nc2n(CCC)c1=O` [1,3-DIPROPYL-8-CYCLOPENTYLXANTHINE [DPCPX]] gave a T/C (Rattus norvegicus [1]) of 1.87, a Urine volume (Rattus norvegicus [2]) of 1.93 ml 6hr-1 100g-1 and an inhibition in vivo at 1 mg/kg (Rattus norvegicus [3]) of 31%. For the same compound, the T/C (Rattus norvegicus [4]) was 1.98, the T/C (Rattus norvegicus [5]) was 2.46 and the Cr (Rattus norvegicus [6]) was 3.75 mg/dL. For the same compound, the inhibition in vivo at 1 mg/kg (Rattus norvegicus [7]) was 27%, the T/C (Rattus norvegicus [8]) was 1.24 and the Urine volume (Rattus norvegicus [9]) was 1.36 ml 6hr-1 100g-1. For the same compound, the “Na+/K+” value (Rattus norvegicus [10]) was 1.76, the Na (Rattus norvegicus [11]) was 0.449 m equiv 6hr-1 100g-1 and the Urine volume (Rattus norvegicus [12]) was 2.05 ml 6hr-1 100g-1. The T/C (Rattus norvegicus [13]) was 2.28, the T/C (Rattus norvegicus [14]) was 2.33 and the Na (Rattus norvegicus [15]) was 0.302 m equiv 6hr-1 100g-1. The T/C (Rattus norvegicus [16]) was 2.79, the T/C (Rattus norvegicus [17]) was 1.27 and the UN (Rattus norvegicus [18]) was 131.7 mg/dL. For the same compound, the “Na+/K+” value (Rattus norvegicus [19]) was 1.57, the “Na+/K+” value (Rattus norvegicus [20]) was 1.54 and the T/C (Rattus norvegicus [21]) was 1.93. For the same compound, the Na (Rattus norvegicus [22]) was 0.215 m equiv 6hr-1 100g-1, the Na (Rattus norvegicus [23]) was 0.316 m equiv 6hr-1 100g-1 and the “Na+/K+” value (Rattus norvegicus [24]) was 1.27. It also gave a Urine volume (Rattus norvegicus [25]) of 2.54 ml 6hr-1 100g-1 and a T/C (Rattus norvegicus [26]) of 2.47.
Work on `Cn1c(=O)c2nc(C3CCCC3)[nH]c2n(C)c1=O` [8-CYCLOPENTYLTHEOPHYLLINE] yielded an inhibition in vivo at 1 mg/kg (Rattus norvegicus [27]) of 54%, a UN (Rattus norvegicus [28]) of 168.7 mg/dL and a T/C (Rattus norvegicus [1]) of 1.64. For the same compound, the T/C (Rattus norvegicus [4]) was 1.82, the Ki (Adenosine receptor A1) was 95 nM and the inhibition in vivo at 0.1 mg/kg (Rattus norvegicus [29]) was -5%. The Urine volume (Rattus norvegicus [30]) was 1.06 ml 6hr-1 100g-1, the inhibition in vivo at 0.1 mg/kg (Rattus norvegicus [31]) was 1% and the T/C (Rattus norvegicus [14]) was 1.25. For the same compound, the inhibition in vivo at 1 mg/kg (Rattus norvegicus [32]) was 53%, the UN (Rattus norvegicus [33]) was 63.6 mg/dL and the Cr (Rattus norvegicus [34]) was 7.26 mg/dL. For the same compound, the T/C (Rattus norvegicus [16]) was 1.23, the “Na+/K+” value (Rattus norvegicus [19]) was 1.12 and the Cr (Rattus norvegicus [35]) was 2.22 mg/dL. For the same compound, the Na (Rattus norvegicus [36]) was 0.217 m equiv 6hr-1 100g-1.
